Laboratory results as given in patent US20230203060A1 (GENFLEET THERAPEUTICS (SHANGHAI) INC., priority 2020, published 2023).
Where two headings read alike, the source gives them in different places.

Tests used:
Assay type in all cases: cell-based, human
[1] = tested on: KRAS G12C mutant NCI-H358 cells; experiment: Cell proliferation inhibition experiment, 3D spheroid, CellTiter-Glo, NCI-H358; details: NCI-H358 (KRAS G12C mutant) 3D spheroid, 5 days with compound, CellTiter-Glo, read-out: H358 IC50
From the text: (§1) Raw materials and instruments: NCI-H358 purchased from ATCC; article number: CRL-5807; batch number: 70010825; A549 purchased from ATCC; article number: CCL-185; batch number: 70007820; RPMI1640 purchased from Gibco; article number: 11875-093; batch number: 2152748; F-12K purchased from Gibco; article number: 21127-022; batch number: 2185853; FBS purchased from Gibco; article number: 10099-141; batch number: 2109290CP; PS purchased from Gibco; article number: 15140-122; batch number: 2145451; Trypsin-EDTApurchased from Gibco; article number: 25200-072; batch number: 2085552; CellTiter Glo working solution purchased from Promega; article number: G9683; batch number: 398478; DMSO purchased from VWR AMRESCO; article number: 0231-500ML; batch number: 18C0656168; 384-well spheroid plate purchased from Corning; article number: 3830; batch number: 27519032; white opaque 384-well plate purchased from Corning; article number: 3570; batch number: 26819023; microplate reader purchased from PerkinElmer; model: Envision MLD2105-0020; equipment number 1050369.
(§2) NCI-H358 is a KRAS G12C mutant human non-small cell lung cancer cell line, cultured in 10% FBS RPMI-1640+1% PS culture medium; and A549 is a KRAS G12S mutant human lung adenocarcinoma cell line, cultured in 10% FBS F-12K+1% PS culture medium. Cells at logarithmic growth stage were taken, digested with trypsin-EDTA, then collected and counted. H358 was adjusted to 1.8 E4 cells/mL with 2% FBS RPMI-1640 culture medium, and A549 was adjusted to 8.9 E3 cells/mL with 2% FBS F-12K culture medium; 800 (45 μL) H358 or 400 (45 μL) A549 were inoculated respectively in a 384-well spheroid plate and cultured overnight to establish a 3D cell model. A 3.16-fold gradient concentration stock solution of 1000× compound was prepared with DMSO, and diluted 100-fold to 10× compound stock solution with 2% FBS culture medium. On the second day after cell inoculation, 5 μL of 10× compound stock solution was added to each cell culture well, with a final concentration of 1× and a DMSO content of 0.1%. DMSO was used as experimental control (control), and 2% FBS culture medium was used as blank control (blank). After 5 days of compound cell culture, 25 μL of CellTiter-Glo working solution was added to each well, mixed well at 400 rpm and incubated for 30 minutes. After standing at room temperature for 30 minutes, 40 μL of the mixed solution was transferred to a white opaque 384-well plate, and the luminescence chemiluminescence value was read with a microplate reader. The cell proliferation inhibition rate IR (%)=(RLU control -RLU compound)/(RLU control -RLU blank) x100% was calculated. The gradient dilution concentration of the compound and the corresponding cell proliferation inhibition rate were fitted by Prism 6 four-parameter method, and the IC50 value was calculated. The inhibitory activity of the compounds prepared in the above embodiments of the present disclosure on KRAS G12C mutant NCI-H358 cells was 0.0001 μM to 0.5 μM; the inhibitory activity of some compounds on KRAS G12C mutant NCI-H358 cells was 0.001 μM to 0.1 μM or 0.001 μM to 0.05 μM.

[2] = tested on: A549 cells (KRAS G12S mutant); experiment: Cell proliferation inhibition experiment, 3D spheroid, CellTiter-Glo, A549; details: A549 (KRAS G12S mutant) 3D spheroid, 5 days with compound, CellTiter-Glo, read-out: A549 IC50
From the text: as §1, §2

[3] = tested on: KRAS G12C mutant MIA PaCa-2 cells; experiment: Cell proliferation inhibition experiment, 3D spheroid, CellTiter-Glo, MIA PaCa-2; details: 3D cell model in 384-well spheroid plate, 5 days, CellTiter-Glo, read-out: MIA-PaCa2 IC50
From the text: Raw materials and instruments: MIA PaCa-2 purchased from ATCC; article number: CRL-1420; batch number: 63143594; DMEM purchased from Gibco; article number: 11995-065; batch number: 2186878; FBS purchased from Gibco; article number: 10099-141; batch number: 2109290CP; Horse Serum purchased from Gibco; article number: 16050-122; batch number: 1818976; PS purchased from Gibco; article number: 15140-122; batch number: 2145451; Trypsin-EDTA purchased from Gibco; article number: 25200-072; batch number: 2085552; CellTiter Glo working solution purchased from Promega; article number: G9683; batch number 398478; DMSO purchased from VWR AMRESCO; article number: 0231-500ML; batch number: 18C0656168; 384-well spheroid plate purchased from Corning; article number: 3830; batch number: 27519032; white opaque 384-well plate purchased from Corning; article number: 3570; batch number: 26819023; microplate reader purchased from PerkinElmer; model: Envision MLD2105-0020; equipment number 1050369.
MIA PaCa-2 is a KRAS G12C mutant human pancreatic cancer cell line, cultured in 10% FBS+2.5% Horse Serum DMEM+1% PS culture medium; cells at logarithmic growth stage were taken, digested with trypsin-EDTA, then collected and counted, and 200 MIA PaCa-2 were inoculated in a 384-well spheroid plate, respectively, and cultured overnight to establish a 3D cell model. A 3.16-fold gradient concentration stock solution of 1000× compound was prepared with DMSO, and diluted 100-fold to 10× compound stock solution with culture medium. On the second day after cell inoculation, 10× compound stock solution was added to each cell culture well, with a final concentration of 1× and a DMSO content of 0.1%. DMSO was used as experimental control (control), and culture medium was used as blank control (blank). After 5 days of compound cell culture, 30 μL of CellTiter-Glo working solution was added to each well, mixed well and incubated for 30 minutes. After standing at room temperature for 30 minutes, 40 μL of the mixed solution was transferred to a white opaque 384-well plate, and the luminescence chemiluminescence value was read with a microplate reader. The cell proliferation inhibition rate IR (%)=(RLU control -RLU compound)/(RLU control−RLU blank)×100% was calculated. The gradient dilution concentration of the compound and the corresponding cell proliferation inhibition rate were fitted by XLFit four-parameter method, and the IC50 value was calculated. The inhibitory activity of the compounds prepared in the above embodiments of the present disclosure on KRAS G12C mutant MIA PaCa-2 cells was 0.0001 μM to 0.5 μM; the inhibitory activity of some compounds on KRAS G12C mutant MIA PaCa-2 cells was 0.001 μM to 0.1 μM or 0.001 μM to 0.05 μM.

[4] = Homo sapiens, MIA PaCa-2, 120 h

Row | IC50 ([1]; Homo sapiens, NCI-H358, 120 h) | IC50 ([2]; Homo sapiens, A549, 120 h) | IC50 [3, 4] | IC50 [1] | IC50 [2] | IC50 [3] | SMILES
1 | 0.04 µM | > 20 µM | 0.041 µM |  |  |  | C=CC(=O)N1CCN2C(=O)c3c(N4CCN(C)CC4)nc(-c4c(O)cccc4F)c(Cl)c3OC[C@H]2C1 [Z30, (6aR)-8-acryloyl-4-chloro-3-(2-fluoro-6-hydroxyphenyl)-1-(4-methylpiperazin-1-yl)-6,6a,7,8,9,10-hexahydro-12H-pyrazino[2,1-c]pyrido[3,4-f][1,4]oxazepin-12-one]
2 |  |  |  | 0.021 µM | > 5 µM | 0.036 µM | C=CC(=O)N1CCN2C(=O)c3c(N4CCC5(CCC5)C4)nc(-c4c(O)cccc4F)c(Cl)c3OC[C@H]2C1 [Z35, (6aR)-8-actyloyl-4-chloro-3-(2-fluoro-6-hydroxyphenyl)-1-(6-azaspiro[3.4]octan-6-yl)-6,6a,7,8,9,10-hexahydro-12H-pyrazino[2,1-c]pyrido[3,4-f][1,4]oxazepin-12-one]
3 | 0.058 µM | > 20 µM | 0.081 µM |  |  |  | C=CC(=O)N1CCN2C(=O)c3c(N(C)C4CCOCC4)nc(-c4c(O)cccc4F)c(Cl)c3OC[C@H]2C1 [Z25, (6aR)-8-acryloyl-4-chloro-3-(2-fluoro-6-hydroxyphenyl)-1-(methyl(tetrahydro-2H-pyran-4-yl)amino)-6,6a,7,8,9,10-hexahydro-12H-pyrazino[2,1-c]pyrido[3,4-f][1,4]oxazepin-12-one]
4 | 0.091 µM | > 30 µM | 0.057 µM |  |  |  | C=CC(=O)N1CCN2C(=O)c3c(OCC4CCN(C)CC4)nc(-c4c(O)cccc4F)c(Cl)c3OC[C@H]2C1 [Z40, (6aR)-8-acryloyl-1-((1-methylpiperidin-4-yl)methoxy)-4-chloro-3-(2-fluoro-6-hydroxyphenyl)-6,6a,7,8,9,10-hexahydro-12H-pyrazino[2,1-c]pyrido[3,4-f][1,4]oxazepin-12-one]
5 | 0.051 µM | 5.09 µM | 0.232 µM |  |  |  | C=CC(=O)N1CCN2C(=O)c3c(Nc4c(C)ccnc4C(C)C)nc(-c4ccccc4F)c(Cl)c3OC[C@H]2C1 [Z8, (R)-8-acryloyl-4-chloro-3-(2-fluorophenyl)-1-((2-isopropyl-4-methylpyridin-3-yl)amino)-6,6a,7,8,9,10-hexahydro-12H-pyrazino[2,1-c]pyrido[3,4-f][1,4]oxazepin-12-one]
6 | 0.026 µM | > 5 µM | 0.036 µM |  |  |  | C=CC(=O)N1CCN2C(=O)c3c(N4CCO[C@H](C)C4)nc(-c4c(O)cccc4F)c(Cl)c3OC[C@H]2C1 [Z24, (6aR)-8-acryloyl-4-chloro-3-(2-fluoro-6-hydroxyphenyl)-1-((R)-2-methylmorpholino)-6,6a,7,8,9,10-hexahydro-12H-pyrazino[2,1-c]pyrido[3,4-f][1,4]oxazepin-12-one]
7 | 0.05 µM | > 5 µM | 0.073 µM |  |  |  | C=CC(=O)N1CCN2C(=O)c3c(N4CCO[C@@H](C)C4)nc(-c4c(O)cccc4F)c(Cl)c3OC[C@H]2C1 [Z23, (6aR)-8-acryloyl-4-chloro-3-(2-fluoro-6-hydroxyphenyl)-1-((S)-2-methylmorpholino)-6,6a,7,8,9,10-hexahydro-12H-pyrazino[2,1-c]pyrido[3,4-f][1,4]oxazepin-12-one]
8 | 0.04 µM | > 1 µM | 0.057 µM |  |  |  | C=CC(=O)N1CCN2C(=O)c3c(N4CCOC5(CCC5)C4)nc(-c4c(O)cccc4F)c(Cl)c3OC[C@H]2C1 [Z36, (6aR)-8-acryloyl-4-chloro-3-(2-fluoro-6-hydroxyphenyl)-1-(5-oxa-8-azaspiro[3.5]nonan-8-yl)-6,6a,7,8,9,10-hexahydro-12H-pyrazino[2,1-c]pyrido[3,4-f][1,4]oxazepin-12-one]
9 | 0.046 µM | > 20 µM | 0.06 µM |  |  |  | C=CC(=O)N1CCN2C(=O)c3c(N4CCC5(COC5)C4)nc(-c4c(O)cccc4F)c(Cl)c3OC[C@H]2C1 [Z45, (6aR)-8-acryloyl-4-chloro-3-(2-fluoro-6-hydroxyphenyl)-1-(2-oxa-6-azaspiro[3.4]octan-6-yl)-6,6a,7,8,9,10-hexahydro-12H-pyrazino[2,1-c]pyrido[3,4-f][1,4]oxazepin-12-one]
10 |  |  |  | 0.146 µM | > 30 µM | 0.292 µM | C=CC(=O)N1CCN2C(=O)c3c(-c4ccccc4)nc(-c4c(O)cccc4F)c(Cl)c3OC[C@H]2C1 [Z53, (6aR)-8-acryloyl-4-chloro-3-(2-fluoro-6-hydroxyphenyl)-1-phenyl-6,6a,7,8,9,10-hexahydro-12H-pyrazino[2,1-c]pyrido[3,4-f]oxazepin-12-one]
11 | 0.0229 µM | 13.8 µM | 0.0416 µM |  |  |  | C=CC(=O)N1CCN2C(=O)c3c(N4CCN(C5COC5)CC4C)nc(-c4c(O)cccc4F)c(Cl)c3OC[C@H]2C1 (stereo partly drawn) [Z239, (6aR)-8-acryloyl-4-chloro-3-(2-fluoro-6-hydroxyphenyl)-1-(2-methyl-4-(oxetan-3-yl)piperazin-1-yl)-6,6a,7,8,9,10-hexahydro-12H-pyrazino[2,1-c]pyrido[3,4-f][1,4]oxazepin-12-one]
12 |  |  |  | 0.019 µM | > 30 µM | 0.027 µM | C=CC(=O)N1CCN2C(=O)c3c(N4CCC5(CCOC5)C4)nc(-c4c(O)cccc4F)c(Cl)c3OC[C@H]2C1 (stereo partly drawn) [Z59, (6aR)-8-acryloyl-4-chloro-3-(2-fluoro-6-hydroxyphenyl)-1-(2-oxa-7-azaspiro[4.4]nonan-7-yl)-6,6a,7,8,9,10-hexahydro-12H-pyrazino[2,1-c]pyrido[3,4-f][1,4]oxazepin-12-(6aH)-one]
